Source: patent US20250140406A1, “CLASSIFYING TUMORS AND PREDICTING RESPONSIVENESS” (Oncocyte Corporation, priority 2022, published 2025)
Where two headings read alike, the source gives them in different places.

Key:
[1] = tested on: cancer cell lines, DetermaIO classes; assay: Association of PRISM compound sensitivity with DetermaIO (DTIO) cell line classes; assay type: cell-based
[2] = tested on: cancer cell lines classified IM, MSL, M; assay: PRISM screen compound sensitivity correlated with IM, MSL and M subtype of cell lines (101 gene signature); assay type: cell-based; settings: for TNBCType train: 101 gene signature
[3] = correlation of PRISM compound sensitivity with DTIO, test cell set (188 cell lines)
[4] = correlation of PRISM compound sensitivity with DTIO, training cell set (371 cell lines)
[5] = correlation of PRISM compound sensitivity with IM subtype correlation, test cell set (188 cell lines)
[6] = correlation of PRISM compound sensitivity with M subtype correlation, test cell set (188 cell lines)
[7] = correlation of PRISM compound sensitivity with MSL subtype correlation, test cell set (188 cell lines)
[8] = subtype (IM, MSL or M) the PRISM compound sensitivity is associated with, training cell set (371 cell lines)
[9] = correlation of PRISM compound sensitivity with DTIO, test cell set
[10] = correlation of PRISM compound sensitivity with DTIO, training cell set
[11] = subtype (IM, MSL or M) with which compound sensitivity is negatively correlated, training cell set (371 cell lines)
[12] = correlation of PRISM compound sensitivity with DTIO (DetermaIO), test cell set (188 cell lines)
[13] = correlation of PRISM compound sensitivity with DTIO (DetermaIO), training cell set (371 cell lines)
[14] = correlation of PRISM compound sensitivity with IM subtype correlation, test cell set
[15] = correlation of PRISM compound sensitivity with M subtype correlation, test cell set
[16] = correlation of PRISM compound sensitivity with MSL subtype correlation, test cell set
[17] = subtype (IM, MSL or M) assigned to the compound by negative correlation of PRISM sensitivity with subtype, training cell set (371 cell lines)
[18] = subtype (IM, MSL or M) with which PRISM compound sensitivity is negatively correlated, training cell set

Compound | IM Corr test [2, 5] | M Corr test [2, 6] | MSL Corr test [2, 7] | DTIO Corr test [1, 9] | DTIO Corr train [1, 10] | other results
C[C@H](N[C@@H](CCc1ccccc1)C(=O)O)C(=O)N1CCC[C@H]1C(=O)O [enalaprilat] | 0.03404 | −0.06381 | −0.1038 |  |  | DTIO Corr test [1, 3]: −0.03184; DTIO Corr train [1, 4]: 0.0604; TNBCType train [2, 8]: MSL
C=C1C[C@@H]2[C@H](CC[C@]3(C)C(=O)CC[C@@H]23)[C@@]2(C)C=CC(=O)C=C12 [exemestane] |  |  |  |  |  | DTIO Corr test [1]: 0.03291; DTIO Corr train [1]: 0.03081; IM Corr test [2]: 0.07921; M Corr test [2]: −0.1056; MSL Corr test [2]: −0.04525
CCC(O)(c1ccccc1)c1cccc(C(F)(F)F)c1 (centres unmarked) [flumecinol] | 0.06404 | −0.06491 | −0.09398 | 0.03786 | 0.02706 | TNBCType train [2, 11]: MSL
OCCN1CCN(CC/C=C2/c3ccccc3Sc3ccc(C(F)(F)F)cc32)CC1 [flupentixol] | −0.05449 | 0.1086 | 0.1536 |  |  | DTIO Corr test [1, 12]: −0.04775; DTIO Corr train [1, 13]: −0.1041
C[C@H](C(=O)O)c1ccc(-c2ccccc2)c(F)c1 [flurbiprofen-(S)-(+)] | −0.0194 | 0.01889 | 0.02942 |  |  | DTIO Corr test [1, 12]: −0.0319; DTIO Corr train [1, 13]: −0.04195
CNC(=O)CN(CCN(CCN(CC(=O)[O-])CC(=O)NC)CC(=O)[O-])CC(=O)[O-].[Gd+3] [gadodiamide] |  |  |  | −0.0433 | −0.1128 | IM Corr test [2, 14]: −0.07426; M Corr test [2, 15]: 0.04886; MSL Corr test [2, 16]: −0.03759
CC(O)CN1CCN(CC(=O)[O-])CCN(CC(=O)[O-])CCN(CC(=O)[O-])CC1.[Gd+3] (centres unmarked) [gadoteridol] | −0.02624 | −0.02135 | −0.00929 | −0.08228 | −0.04116 | TNBCType train [2, 11]: MSL
CC(C)=CCC[C@](C)(O[C@@H]1O[C@H](CO)[C@@H](O)[C@H](O)[C@H]1O)[C@H]1CC[C@]2(C)[C@@H]1[C@H](O)C[C@@H]1[C@@]3(C)CC[C@H](O[C@@H]4O[C@H](CO)[C@@H](O)[C@H](O)[C@H]4O[C@@H]4O[C@H](CO)[C@@H](O)[C@H](O)[C@H]4O)C(C)(C)[C@@H]3CC[C@]12C [ginsenoside-rd] |  |  |  |  |  | DTIO Corr test [1]: −0.0392; DTIO Corr train [1]: −0.02011; IM Corr test [2]: −0.05744; M Corr test [2]: −0.00784; MSL Corr test [2]: −0.02352; TNBCType train [2, 11]: MSL
CC(C)=CCC[C@](C)(O)[C@H]1CC[C@]2(C)[C@@H]1[C@H](O)C[C@@H]1[C@@]3(C)CC[C@H](O[C@@H]4O[C@H](CO)[C@@H](O)[C@H](O)[C@H]4O[C@@H]4O[C@H](CO)[C@@H](O)[C@H](O)[C@H]4O)C(C)(C)[C@@H]3CC[C@]12C [ginsenoside-rg3] | 0.007852 | −0.05841 | −0.02955 | −0.00056 | 0.0566 | 
CC(C)C[C@H](NC(=O)CNC(=O)[C@H](Cc1ccc(O)cc1)NC(=O)[C@H](CO)NC(=O)[C@H](Cc1c[nH]c2ccccc12)NC(=O)[C@H](Cc1cnc[nH]1)NC(=O)[C@@H]1CCC(=O)N1)C(=O)N[C@@H](CCCNC(=N)N)C(=O)N1CCC[C@H]1C(=O)NCC(N)=O [gonadorelin] | −0.1061 | −0.01145 | −0.1224 |  |  | DTIO Corr test [1, 3]: −0.06774; DTIO Corr train [1, 4]: −0.05189; TNBCType train [2, 8]: MSL
O=C(O)Cc1cccnc1C(=O)O [homoquinolinic-acid] |  |  |  | −0.0252 | −0.1121 | IM Corr test [2, 14]: −0.08778; M Corr test [2, 15]: 0.05663; MSL Corr test [2, 16]: 0.003236
O=C(O)CCCN1C(=O)c2cccc3cccc(c23)C1=O [isodibut] | −0.04572 | −0.03436 | −0.1039 |  |  | DTIO Corr test [1, 12]: −0.0652; DTIO Corr train [1, 13]: 0.05075; TNBCType train [2, 17]: MSL
CNC(C)CCC=C(C)C.CNC(C)CCC=C(C)C.O=C(O)[C@@H](O)[C@H](O)[C@H](O)[C@@H](O)C(=O)O [isometheptene-mucate] | −0.09289 | 0.05313 | 0.118 | −0.04443 | −0.1179 | 
C[C@]12CC[C@H]3[C@@H](CC[C@]4(O)C[C@@H](O)CC[C@]34C=O)[C@@]1(O)CC[C@@H]2C1=CC(=O)OC1 [k-strophanthidin] | −0.06974 | −0.03165 | −0.1099 | −0.03307 | −0.01124 | TNBCType train [2, 11]: MSL
O=C(CCn1cnc2c(=O)[nH]cnc21)Nc1ccc(C(=O)O)cc1 [leteprinim] |  |  |  | 0.02507 | −0.08293 | IM Corr test [2, 14]: 0.08575; M Corr test [2, 15]: −0.1262; MSL Corr test [2, 16]: −0.09795; TNBCType train [2, 18]: MSL
N=C(N)NC(=N)Nc1cccc(Cl)c1 [m-Chlorophenylbiguanide] |  |  |  | −0.0968 | −0.09639 | IM Corr test [2, 14]: −0.148; M Corr test [2, 15]: 0.08655; MSL Corr test [2, 16]: 0.1129
O=C(O)[C@H](O)[C@@H](O)[C@H](O[C@@H]1O[C@H](CO)[C@H](O)[C@H](O)[C@H]1O)[C@H](O)CO [maltobionic-acid] | 0.1078 | −0.08169 | 0.03716 | 0.13 | 0.09859 | 
CCOC(=O)c1c(C)n(C)c2ccc(O)cc12 [mecarbinate] |  |  |  | −0.09259 | −0.07862 | IM Corr test [2, 14]: −0.08712; M Corr test [2, 15]: 0.04238; MSL Corr test [2, 16]: −0.08851
CC(C)(CCCCCCCCCCC(C)(C)CC(=O)O)CC(=O)O [medica-16] | −0.06152 | 0.01613 | −0.1086 |  |  | DTIO Corr test [1, 12]: 0.004343; DTIO Corr train [1, 13]: −0.05017; TNBCType train [2, 17]: MSL
[O-][n+]1cccc(CO)c1 [mepiroxol] | −0.07855 | 0.0253 | 0.01789 |  |  | DTIO Corr test [1, 12]: −0.08258; DTIO Corr train [1, 13]: −0.1082
CC(C)(C)NCc1cc(Nc2ccnc3cc(Cl)ccc23)c2c(c1O)CCCC2.O=P(O)(O)O.O=P(O)(O)O [naphthoquine-phosphate] | −0.01598 | 0.03443 | −0.02275 | 0.04517 | 0.03212 | TNBCType train [2, 11]: MSL
O=[N+]([O-])c1ccc([As](=O)(O)O)cc1 [nitarsone] | −0.01836 | 0.02346 | −0.02358 |  |  | DTIO Corr test [1, 12]: −0.04129; DTIO Corr train [1, 13]: 0.03389; TNBCType train [2, 17]: MSL
C#C[C@]1(OC(=O)CCCCCC)CC[C@H]2[C@@H]3CCC4=CC(=O)CC[C@@H]4[C@H]3CC[C@@]21C [norethisterone-enanthate] |  |  |  |  |  | DTIO Corr test [1]: 0.009756; DTIO Corr train [1]: −0.1312; IM Corr test [2]: −0.05873; M Corr test [2]: 0.01774; MSL Corr test [2]: 0.1042
COc1ccc(C2=N[C@@H](c3ccc(Cl)cc3)[C@@H](c3ccc(Cl)cc3)N2C(=O)N2CCNC(=O)C2)c(OC(C)C)c1 [nutlin-3] | 0.06852 | −0.07413 | 0.03536 | 0.1503 | 0.1606 | 
C[N+](C)(C)CC#CCN1CCCC1=O [oxotremorine-m] | −0.08895 | 0.05992 | 0.09728 | −0.1128 | −0.0669 | 
CC[C@H](C)[C@@H]1NC(=O)[C@H](Cc2ccc(O)cc2)NC(=O)[C@@H](N)CSSC[C@@H](C(=O)N2CCC[C@H]2C(=O)N[C@@H](CC(C)C)C(=O)NCC(N)=O)NC(=O)[C@H](CC(N)=O)NC(=O)[C@H](CCC(N)=O)NC1=O [oxytocin] |  |  |  | −0.07667 | 0.04167 | IM Corr test [2, 14]: −0.06688; M Corr test [2, 15]: 0.01789; MSL Corr test [2, 16]: −0.03975; TNBCType train [2, 18]: MSL
CN1C(=O)C(N2CCCCC2)S/C1=C\C(=O)O (centres unmarked) [ozolinone] | −0.1322 | −0.01029 | −0.06039 | −0.09683 | 0.04306 | TNBCType train [2, 11]: MSL
COc1cc(/C=C/c2ccc(O)cc2)cc(OC)c1 [pterostilbene] |  |  |  |  |  | DTIO Corr test [1]: −0.06647; DTIO Corr train [1]: −0.0588; IM Corr test [2]: −0.08513; M Corr test [2]: 0.06063; MSL Corr test [2]: −0.05713
CNC(=O)c1cnn(-c2nc(N)c3ncn([C@@H]4O[C@H](CO)[C@@H](O)[C@H]4O)c3n2)c1 [regadenoson] | −0.08832 | 0.02954 | −0.05759 | −0.1015 | −0.1586 | 
